From US20030212034A1, “Method of treatment of obesity and paralyzed muscle and ergogenic aids” (priority 2002, published 2003)

How the values were obtained:
Format in all cases: in vivo, rat
[1] = system: GLUT4; assay: GLUT4 western blot in 3-day denervated and contralateral muscles after AICAR injections
Protocol: (§1) Rats were anesthetized with ether and the sciatic nerve of the right hindlimb was severed. The left hindlimb was sham operated to serve as a control. Both skin wounds were closed with a metal clips. The rats used for the acute study were also implanted with a jugular catheter which was exteriorized on the back of the neck at the time of denervation for rapid administration of anesthesia.
Muscle was ground to a powder under liquid nitrogen and homogenized ([…]) in HEPES buffer [25 mM HEPES, 1 mM EDTA, 1 mM benzamadine, 1 mM 4-(2-aminoethyl)-benzene+sulfonyl fluoride, 1 μM leupeptin, 1 μM antitrypsin, 1 μM aprotinin, pH 7.5]. This homogenate was then diluted with water and Laemmli's buffer (1 mL homogenate:2 mL water: 1 mL buffer) immediately before loading. 20 μL of this homogenate were then loaded onto a 10% SDS-PAGE mini gel (Tris-HCl ready gels, BioRad, Hercules, Calif.). Samples were subjected to electrophoresis at 200 V for 45 minutes. Proteins were transferred from gel to nitrocellulose membrane at 100V for 50 minutes. Membranes were blocked in 5% non-fat milk (BioRad, Hercules, Calif.) in PBST (139 mM NaCl, 2.7 mM KH2PO4, 9.9 mM Na2HPO4, and 0.05% Tween-20) and were then left overnight with GLUT4 polyclonal antibody (Biogenesis, Kingston, N.H.) in 5% dried milk solution (1:5000 dilution). After washing twice in PBST, and twice in PBS (139 mM NaCl, 2.7 mM KH2PO4, 9.9 mM Na2HPO4), the membranes were exposed to horseradish peroxidase-conjugated donkey anti-rabbit IgG (Amersham Life Sciences, Arlington Heights, Ill.) for 1 h. at room temperature. After again washing twice with PBST and twice with PBS, the membranes were incubated in enhanced chemoluminescence-detection reagent and then visualized on enhanced chemoluminescence hyperfilm (Amersham Life Sciences). Relative amounts of GLUT4 were then quantified using a Hewlett Packard Scan Jet 6200C and SigmaGel software (SPSS, Chicago, Ill.). Western blot data are expressed as arbitrary units where individual values were divided by the mean basal GLUT4 value (sham operated leg/injected with 0.9%/NaCl solution).
Rats were injected either with AICAR (1 mg in 0.9% NaCl/g body weight) or a 0.9% NaCl solution ˜0, ˜24, and ˜48 hours after denervation and were then sacrificed ˜72 hours after denervation without injection. Rats were anesthetized with sodium pentobarbital (4.8 mg/100 g. body weight), soleus and gastrocnemius muscles from both sham and denervated sides were extracted, and muscles were quick frozen in liquid nitrogen and stored for analysis.
Rats were denervated as described above between 8:00 and 10:00 and were immediately injection with either 0.9% NaCl solution (n=4), 0.1 mg AICAR in 0.9% NaCl/g body weight (n=4), 0.5 mg AICAR in 0.9% NaCl/g body weight (n=3), or 1 mg AICAR in 0.9% NaCl/g body weight (n=4). Rats of each treatment group were subsequently injected with the respective AICAR solutions at ˜24 and ˜48 hours after denervation. Rats were killed ˜72 hours after denervation without an AICAR injection and muscles were collected as described above.

[2] = system: acetyl-CoA carboxylase (ACC); assay: ACC activity and citrate dependence in denervated and contralateral muscles after acute AICAR injection; settings: for ACC activity vs saline, several citrate concentrations / ACC activity at 0.2 mM citrate vs saline-treated contralateral innervated soleus: acute AICAR 1 mg/g; for ACC activity vs saline, several citrate concentrations: FIG. 10; for ACC activity at 0.2 mM citrate vs saline-treated contralateral innervated soleus: FIG. 9
From the text: as §1
(§2) Rats were denervated between 8:30 a.m. and 10:30 a.m. and were then given 25 g of food. Rats were handled twice during the day to accustom them to being handled. The rats were given a single subcutaneous injection 24 hours. after surgery of either AICAR (1 mg/g body weight) in sterile 0.9% NaCl or with just 0.9% NaCl, and were subsequently anesthetized intravenously. Soleus and gastrocnemius muscles from both sham and denervated sides were extracted and quick frozen in liquid nitrogen for analysis. AMPK activity and acetyl-Co A carboxylase (ACC) activity were determined as previously described. Winder W W & Hardie D G, Am J. Physiol 270 (Endocrinol Metab 33): E299-E304, 1996. Because this analysis is done on homogenates prepared by ammonium sulfate precipitation, only those effects on AMPK activity modified by phosphorylation are measured. […] Because ACC is a target for phosphorylation by AMPK, and because ACC activity has been reported to decrease in response to phosphorylation by AMPK, ACC activity is measured to give an indication of the in vivo actions of AMPK.
Referring to FIG. 10, Citrate dependence of acetyl-CoA carboxylase (ACC) in denervated and contralateral innervated gastrocnemius muscles from rats treated with AICAR (1 mg AICAR in 0.9% NaCl/1 g body weight) or saline (0.9% NaCl) is illustrated. SE values were determined but are not shown (n=5).Curves were fitted to data by using the Hill equation and Grafit software (Sigma Chemical, St. Louis, Mo.). FIG. 10 graphs the specific activity of ACC in saline-treated and AICAR-treated gastrocnemius muscles at several different citrate concentrations.

[3] = system: AMP-activated protein kinase (AMPK); assay: AMPK activity in denervated and contralateral muscles after acute AICAR injection; settings: acute AICAR 1 mg/g
From the text: as §1, §2

In the case of `NC(=O)c1ncn([C@@H]2O[C@H](CO)[C@@H](O)[C@H]2O)c1N` [AICAR, 5-aminoimidazole-4-carboxamide-1-β-D-ribofuranoside], the “GLUT4 content, percent intensity of saline-treated contralateral innervated controls” value ([1]; contralateral innervated gastrocnemius, AICAR 1 mg/g for 3 days) is reported as 130.1%, the “GLUT4 content, percent intensity of saline-treated contralateral innervated controls” value ([1]; denervated gastrocnemius, AICAR 1 mg/g for 3 days, saline denervated 60.1%) is reported as 106.6% and the “dose dependent response of GLUT4 vs saline-treated denervated gastrocnemius” value ([1]; denervated gastrocnemius, doses 0.1, 0.5, 1 mg/g, result for the 1 mg/g dose, FIG. 11) is reported as “only dose that significantly raises GLUT4 content”. For the same compound, the “increase of GLUT4 vs. saline-treated denervated gastrocnemius controls” value ([1]; denervated gastrocnemius, subcutaneous AICAR injections) was 80%, the “GLUT4 content, percent of saline-treated contralateral controls” value ([1]; denervated soleus, AICAR 1 mg/g for 3 days, saline denervated 72.6%, not significant) was 85.4% and the “dose dependent response of GLUT4 vs saline-treated innervated gastrocnemius” value ([1]; innervated gastrocnemius, doses 0.1, 0.5, 1 mg/g, result for the 1 mg/g dose, FIG. 11) was “only dose that significantly raises GLUT4 content”. The “ACC activity vs saline, several citrate concentrations” value ([2]; contralateral innervated gastrocnemius) was “significantly decrease ACC activity”, the “ACC activity at 0.2 mM citrate vs saline-treated contralateral innervated soleus” value ([2]; contralateral soleus) was “significantly (P<0.01) decreased” and the “ACC citrate activation constant (Ka)” value ([2]; denervated gastrocnemius, acute AICAR 1 mg/g s.c., saline-treated denervated 3.6±0.3) was 13.2±1.1. For the same compound, the “ACC maximal velocity (Vmax) as a function of citrate concentration” value ([2]; denervated gastrocnemius, acute AICAR 1 mg/g s.c., saline-treated denervated 36.7±5) was 24.7±1.9, the “ACC activity vs saline, several citrate concentrations” value ([2]; denervated gastrocnemius) was “significantly decrease ACC activity” and the “ACC activity at 0.2 mM citrate vs saline-treated contralateral innervated soleus” value ([2]; denervated soleus) was “significantly (P<0.01) decreased”. The “AMPK activity vs saline-treated contralateral innervated muscles” value ([3]; contralateral innervated gastrocnemius, FIG. 7) was “significantly (P<0.05) elevated”, the “AMPK activity vs saline-treated contralateral innervated muscles” value ([3]; contralateral innervated soleus, FIG. 8) was “significantly (P<0.05) elevated” and the “AMPK activity vs saline-treated contralateral innervated muscles” value ([3]; denervated gastrocnemius, FIG. 7) was “significantly (P<0.05) elevated”.
